Laboratory results from article PMC5218480 (PLoS ONE, 2017).

Test system: MV-4-11 cells
Experiment: Gene expression microarray analysis (Affymetrix PrimeView) and GSEA
Format: cell-based, human
Set-up: RFU PODN (11730768_x_at) / Fold change /veh PODN (11730768_x_at) / RFU LINC00158 (11744669_a_at) / Fold change /veh LINC00158 (11744669_a_at) / RFU DUSP10 (11751237_a_at) / Fold change /veh DUSP10 (11751237_a_at) / RFU ID3 (11757404_x_at) / Fold change /veh ID3 (11757404_x_at) / RFU PLEKHG5 (11737974_s_at) / Fold change /veh PLEKHG5 (11737974_s_at) / RFU LRRC4B (11730491_at) / Fold change /veh LRRC4B (11730491_at) / RFU GIMAP4 (11747438_a_at) / Fold change /veh GIMAP4 (11747438_a_at) / RFU KRT8 (11758183_x_at) / Fold change /veh KRT8 (11758183_x_at) / RFU CNN1 (11734310_a_at) / Fold change /veh CNN1 (11734310_a_at) / RFU VPS37D (11726825_at) / Fold change /veh VPS37D (11726825_at) / RFU C10orf10 (11716522_x_at) / Fold change /veh C10orf10 (11716522_x_at) / RFU KIR2DL2 /// KIR2DL4 /// KIR2DL5A /// KIR2DL5B /// KIR2DS1 /// KIR2DS2 /// KIR2DS3 /// KIR2DS4 /// KIR3DL3 /// KIR3DL3 /// KIR3DS1 (11738374_at) / Fold change /veh KIR2DL2 /// KIR2DL4 /// KIR2DL5A /// KIR2DL5B /// KIR2DS1 /// KIR2DS2 /// KIR2DS3 /// KIR2DS4 /// KIR3DL3 /// KIR3DL3 /// KIR3DS1 (11738374_at) / RFU C1QL1 (11718748_at) / Fold change /veh C1QL1 (11718748_at) / RFU TMPRSS4 (11747572_a_at) / Fold change /veh TMPRSS4 (11747572_a_at) / RFU HAMP (11756126_x_at) / Fold change /veh HAMP (11756126_x_at) / RFU RNFT2 (11725882_a_at) / Fold change /veh RNFT2 (11725882_a_at) / RFU NR4A2 (11747474_a_at) / Fold change /veh NR4A2 (11747474_a_at) / RFU ABCC12 (11746883_a_at) / Fold change /veh ABCC12 (11746883_a_at) / RFU TMEM136 (11760407_x_at) / Fold change /veh TMEM136 (11760407_x_at) / RFU CLDN22 /// WWC2 (11732394_at) / Fold change /veh CLDN22 /// WWC2 (11732394_at) / RFU HLA-DPB1 (11760878_x_at) / Fold change /veh HLA-DPB1 (11760878_x_at) / RFU SPINT1 (11716480_a_at) / Fold change /veh SPINT1 (11716480_a_at) / RFU GAP43 (11754022_s_at) / Fold change /veh GAP43 (11754022_s_at) / RFU A4GNT (11735810_at) / Fold change /veh A4GNT (11735810_at) / RFU PRB3 (11715151_x_at) / Fold change /veh PRB3 (11715151_x_at) / RFU TUBB4B (11761932_at) / Fold change /veh TUBB4B (11761932_at) / RFU CAPN14 (11732068_a_at) / Fold change /veh CAPN14 (11732068_a_at) / RFU TMCC2 (11721928_a_at) / Fold change /veh TMCC2 (11721928_a_at) / RFU IRGQ (11745062_a_at) / Fold change /veh IRGQ (11745062_a_at) / RFU FAM174B (11720279_a_at) / Fold change /veh FAM174B (11720279_a_at) / RFU TMPRSS4 (11748680_a_at) / Fold change /veh TMPRSS4 (11748680_a_at) / RFU FAM212B (11763350_a_at) / Fold change /veh FAM212B (11763350_a_at) / RFU PLEKHG5 (11743358_a_at) / Fold change /veh PLEKHG5 (11743358_a_at) / RFU ZSCAN30 (11745921_a_at) / Fold change /veh ZSCAN30 (11745921_a_at) / RFU CMKLR1 (11741424_a_at) / Fold change /veh CMKLR1 (11741424_a_at) / RFU LOC101060620 /// MAPK8IP1 (11723275_at) / Fold change /veh LOC101060620 /// MAPK8IP1 (11723275_at) / RFU SPTSSB (11747773_x_at) / Fold change /veh SPTSSB (11747773_x_at) / RFU PRSS12 (11739890_at) / Fold change /veh PRSS12 (11739890_at) / RFU BIN1 (11741810_x_at) / Fold change /veh BIN1 (11741810_x_at) / RFU WNT11 (11732464_a_at) / Fold change /veh WNT11 (11732464_a_at) / RFU C10orf10 (11716521_a_at) / Fold change /veh C10orf10 (11716521_a_at) / RFU C5orf56 (11738089_at) / Fold change /veh C5orf56 (11738089_at) / RFU CYB561 (11721691_x_at) / Fold change /veh CYB561 (11721691_x_at) / RFU ANKRD19P (11752326_a_at) / Fold change /veh ANKRD19P (11752326_a_at) / RFU OR2T12 /// OR2T33 /// OR2T8 (11738714_s_at) / Fold change /veh OR2T12 /// OR2T33 /// OR2T8 (11738714_s_at) / RFU VCAN (11748164_a_at) / Fold change /veh VCAN (11748164_a_at) / RFU JSRP1 (11732532_at) / Fold change /veh JSRP1 (11732532_at) / RFU KRTAP10-11 (11738290_x_at) / Fold change /veh KRTAP10-11 (11738290_x_at) / RFU MYO3A (11730013_a_at) / Fold change /veh MYO3A (11730013_a_at) / RFU EBF3 (11725865_a_at) / Fold change /veh EBF3 (11725865_a_at) / RFU CAMK2N1 (11719241_x_at) / Fold change /veh CAMK2N1 (11719241_x_at) / RFU C5orf56 (11738088_a_at) / Fold change /veh C5orf56 (11738088_a_at) / RFU OLFML3 (11715873_a_at) / Fold change /veh OLFML3 (11715873_a_at) / RFU LOC100653217 /// NTM (11731650_a_at) / Fold change /veh LOC100653217 /// NTM (11731650_a_at) / RFU MAPK11 (11762145_a_at) / Fold change /veh MAPK11 (11762145_a_at) / RFU FIZ1 (11724087_x_at) / Fold change /veh FIZ1 (11724087_x_at) / RFU OASL (11726364_x_at) / Fold change /veh OASL (11726364_x_at) / RFU SOX15 (11748057_x_at) / Fold change /veh SOX15 (11748057_x_at) / RFU CD79A (11719716_a_at) / Fold change /veh CD79A (11719716_a_at) / RFU HIST1H1D (11736915_at) / Fold change /veh HIST1H1D (11736915_at) / RFU CASKIN2 (11723855_a_at) / Fold change /veh CASKIN2 (11723855_a_at) / RFU LOC730098 (11760151_x_at) / Fold change /veh LOC730098 (11760151_x_at) / RFU OR4N2 (11742367_at) / Fold change /veh OR4N2 (11742367_at) / RFU PRRT2 (11749266_a_at) / Fold change /veh PRRT2 (11749266_a_at) / RFU SNX32 (11753110_a_at) / Fold change /veh SNX32 (11753110_a_at) / RFU CDHR5 (11726645_a_at) / Fold change /veh CDHR5 (11726645_a_at) / RFU RCAN1 (11760418_a_at) / Fold change /veh RCAN1 (11760418_a_at) / RFU FAM167A (11723789_a_at) / Fold change /veh FAM167A (11723789_a_at) / RFU FAM26E (11764081_at) / Fold change /veh FAM26E (11764081_at) / RFU ISYNA1 (11749810_s_at) / Fold change /veh ISYNA1 (11749810_s_at) / RFU ACY1 (11761880_at) / Fold change /veh ACY1 (11761880_at) / RFU 11764098_at / Fold change /veh 11764098_at / RFU SAMD14 (11745864_x_at) / Fold change /veh SAMD14 (11745864_x_at) / RFU NPB (11741838_a_at) / Fold change /veh NPB (11741838_a_at) / RFU TMPRSS6 (11731388_a_at) / Fold change /veh TMPRSS6 (11731388_a_at) / RFU KRTAP10-2 (11738614_at) / Fold change /veh KRTAP10-2 (11738614_at) / RFU ARHGAP8 /// PRR5-ARHGAP8 (11727945_x_at) / Fold change /veh ARHGAP8 /// PRR5-ARHGAP8 (11727945_x_at) / RFU KRTAP5-7 /// NADSYN1 (11734609_at) / Fold change /veh KRTAP5-7 /// NADSYN1 (11734609_at) / RFU RASL12 (11751679_a_at) / Fold change /veh RASL12 (11751679_a_at) / RFU CDKN2B (11736163_a_at) / Fold change /veh CDKN2B (11736163_a_at) / RFU PRF1 (11729649_at) / Fold change /veh PRF1 (11729649_at) / RFU, ZNF638 /// ZNF638-IT1 / Fold change vs veh, ZNF638 /// ZNF638-IT1 / RFU, PANK3 / Fold change vs veh, PANK3 / RFU, SH3YL1 / Fold change vs veh, SH3YL1 / RFU, ZEB2 / Fold change vs veh, ZEB2 / RFU, NRIP1 / Fold change vs veh, NRIP1 / RFU, PTTG1IP / Fold change vs veh, PTTG1IP / RFU, CAPN2 / Fold change vs veh, CAPN2 / RFU, MED14 / Fold change vs veh, MED14 / RFU, SNORA58 / Fold change vs veh, SNORA58 / RFU, C1orf63 / Fold change vs veh, C1orf63 / RFU, LRRFIP1 / Fold change vs veh, LRRFIP1 / RFU, NDUFAF7 / Fold change vs veh, NDUFAF7 / RFU, SLC12A2 / Fold change vs veh, SLC12A2 / RFU, IBTK / Fold change vs veh, IBTK / RFU, ESF1 / Fold change vs veh, ESF1 / Fold change vs veh, TMEM50B / RFU, TAOK1 / Fold change vs veh, TAOK1 / RFU, ACBD3 / Fold change vs veh, ACBD3 / RFU, TMA16 / Fold change vs veh, TMA16 / RFU, RWDD3 / Fold change vs veh, RWDD3 / RFU, BCAT1 / Fold change vs veh, BCAT1 / RFU, EDEM3 / Fold change vs veh, EDEM3 / RFU, TMEM33 / Fold change vs veh, TMEM33 / RFU, WDR75 / Fold change vs veh, WDR75 / RFU, AHCTF1 / Fold change vs veh, AHCTF1 / RFU, TFRC / Fold change vs veh, TFRC / RFU, ZDHHC17 / Fold change vs veh, ZDHHC17 / RFU, NOM1 / Fold change vs veh, NOM1 / RFU, ARL8B / Fold change vs veh, ARL8B / RFU, ZBTB11 / Fold change vs veh, ZBTB11 / RFU, TAMM41 / Fold change vs veh, TAMM41 / RFU, KIAA1704 /// LOC100996395 / Fold change vs veh, KIAA1704 /// LOC100996395 / RFU, ING1 / Fold change vs veh, ING1 / RFU, TRMT61B / Fold change vs veh, TRMT61B / RFU, FUBP3 / Fold change vs veh, FUBP3 / RFU, TP53 / Fold change vs veh, TP53 / RFU, TNKS2 / Fold change vs veh, TNKS2 / RFU, ZFP14 / Fold change vs veh, ZFP14 / RFU, ACTR2 / Fold change vs veh, ACTR2 / RFU, PPP3R1 / Fold change vs veh, PPP3R1 / RFU, PIK3R1 / Fold change vs veh, PIK3R1 / RFU, HNRNPA1 / Fold change vs veh, HNRNPA1 / RFU, RNF170 / Fold change vs veh, RNF170 / RFU, ZNF28 / Fold change vs veh, ZNF28 / RFU, RNGTT / Fold change vs veh, RNGTT / RFU, OGT / Fold change vs veh, OGT / RFU, BRD1 / Fold change vs veh, BRD1 / RFU, MARS / Fold change vs veh, MARS / RFU, ZNF655 / Fold change vs veh, ZNF655 / RFU, FAHD1 / Fold change vs veh, FAHD1 / RFU, BDP1 / Fold change vs veh, BDP1 / RFU, LRRCC1 / Fold change vs veh, LRRCC1 / RFU, ARID1A / Fold change vs veh, ARID1A / RFU, ZNF146 / Fold change vs veh, ZNF146 / RFU, ZNF330 / Fold change vs veh, ZNF330 / RFU, GPN3 / Fold change vs veh, GPN3 / RFU, C9orf123 / Fold change vs veh, C9orf123 / RFU, N4BP2L2 / Fold change vs veh, N4BP2L2 / RFU, ARFIP1 / Fold change vs veh, ARFIP1 / RFU, FAM179B / Fold change vs veh, FAM179B / RFU, BCL10 / Fold change vs veh, BCL10 / RFU, UHRF1BP1L / Fold change vs veh, UHRF1BP1L / RFU, BET1 / Fold change vs veh, BET1 / RFU, CNOT2 / Fold change vs veh, CNOT2 / RFU, ZNF268 / Fold change vs veh, ZNF268 / Fold change vs veh, ZNF507 / RFU, DGCR2 / Fold change vs veh, DGCR2 / RFU, WDSUB1 / Fold change vs veh, WDSUB1 / Fold change vs veh, HSP90B1 /// MIR3652 / RFU, ADSS / Fold change vs veh, ADSS / RFU, GK / Fold change vs veh, GK / RFU, ZNF148 / Fold change vs veh, ZNF148 / RFU, TAF9 / Fold change vs veh, TAF9 / RFU, SLC1A5 / Fold change vs veh, SLC1A5 / RFU, SLMO2 / Fold change vs veh, SLMO2 / RFU, ABCC4 / Fold change vs veh, ABCC4 / RFU, LOC101060439 /// RAP1B / Fold change vs veh, LOC101060439 /// RAP1B / RFU, RFX7 / Fold change vs veh, RFX7 / RFU, GTPBP10 / Fold change vs veh, GTPBP10 / RFU, CNEP1R1 / Fold change vs veh, CNEP1R1 / RFU, BIVM-ERCC5 /// ERCC5 / Fold change vs veh, BIVM-ERCC5 /// ERCC5 / RFU, ILF3 / Fold change vs veh, ILF3 / RFU 11762660_at / Fold change /veh 11762660_at / RFU VCAN (11757783_s_at) / Fold change /veh VCAN (11757783_s_at) / RFU DDX43 (11728927_at) / Fold change /veh DDX43 (11728927_at) / RFU KRT8 (11758188_x_at) / Fold change /veh KRT8 (11758188_x_at) / RFU NKD1 (11759106_at) / Fold change /veh NKD1 (11759106_at) / RFU SRD5A1 (11742802_a_at) / Fold change /veh SRD5A1 (11742802_a_at) / RFU TPSAB1 /// TPSB2 (11721975_s_at) / Fold change /veh TPSAB1 /// TPSB2 (11721975_s_at) / RFU GSTM3 (11746129_a_at) / Fold change /veh GSTM3 (11746129_a_at) / RFU IL23R (11737362_x_at) / Fold change /veh IL23R (11737362_x_at) / RFU TMEM51 (11727254_a_at) / Fold change /veh TMEM51 (11727254_a_at) / RFU PIWIL2 (11732686_x_at) / Fold change /veh PIWIL2 (11732686_x_at) / RFU ORM1 (11744905_x_at) / Fold change /veh ORM1 (11744905_x_at) / RFU CCDC152 (11743942_at) / Fold change /veh CCDC152 (11743942_at) / RFU ECM1 (11717891_a_at) / Fold change /veh ECM1 (11717891_a_at) / RFU IL23R (11748794_a_at) / Fold change /veh IL23R (11748794_a_at) / RFU TNFAIP8L3 (11732012_x_at) / Fold change /veh TNFAIP8L3 (11732012_x_at) / RFU MBOAT4 (11741988_at) / Fold change /veh MBOAT4 (11741988_at) / RFU 11764193_at / Fold change /veh 11764193_at / RFU TMEM53 (11763286_at) / Fold change /veh TMEM53 (11763286_at) / RFU MAGEB2 (11727129_at) / Fold change /veh MAGEB2 (11727129_at) / RFU TMEM200A (11744735_a_at) / Fold change /veh TMEM200A (11744735_a_at) / RFU CCDC152 (11751479_a_at) / Fold change /veh CCDC152 (11751479_a_at) / RFU FAM211A (11726209_a_at) / Fold change /veh FAM211A (11726209_a_at) / RFU RGS16 (11746705_a_at) / Fold change /veh RGS16 (11746705_a_at) / RFU VCAN (11755009_s_at) / Fold change /veh VCAN (11755009_s_at) / RFU RHOB (11743442_s_at) / Fold change /veh RHOB (11743442_s_at) / RFU RGS16 (11720943_a_at) / Fold change /veh RGS16 (11720943_a_at) / RFU RGS16 (11720944_at) / Fold change /veh RGS16 (11720944_at) / RFU, VPS4B / Fold change vs veh, VPS4B / RFU, CREB1 / Fold change vs veh, CREB1 / RFU, DNAJC13 / Fold change vs veh, DNAJC13 / RFU, GNAQ / Fold change vs veh, GNAQ / RFU, CDK5R1 / Fold change vs veh, CDK5R1 / RFU, ZRANB3 / Fold change vs veh, ZRANB3 / RFU, CUL4A / Fold change vs veh, CUL4A / RFU, CCNY / Fold change vs veh, CCNY / RFU, UFL1 / Fold change vs veh, UFL1 / RFU, COG3 / Fold change vs veh, COG3 / RFU, DIAPH2 / Fold change vs veh, DIAPH2 / RFU, SKA2 / Fold change vs veh, SKA2 / RFU, AFF3 / Fold change vs veh, AFF3 / RFU, LMF1 / Fold change vs veh, LMF1 / RFU, IPO11 / Fold change vs veh, IPO11 / RFU, DFFB / Fold change vs veh, DFFB / RFU, FOXP1 / Fold change vs veh, FOXP1 / RFU, CARD8 / Fold change vs veh, CARD8 / RFU, STRN3 / Fold change vs veh, STRN3 / RFU, ADK / Fold change vs veh, ADK / RFU, RASSF2 / Fold change vs veh, RASSF2 / RFU, WIPF1 / Fold change vs veh, WIPF1 / RFU, LARP1B / Fold change vs veh, LARP1B / RFU, RASA1 / Fold change vs veh, RASA1 / RFU, RB1 / Fold change vs veh, RB1 / RFU, PPFIA1 / Fold change vs veh, PPFIA1 / RFU, MAT2A / Fold change vs veh, MAT2A / RFU, CCT5 / Fold change vs veh, CCT5 / RFU, WDR92 / Fold change vs veh, WDR92 / RFU, CUX1 / Fold change vs veh, CUX1 / RFU, TTC7A / Fold change vs veh, TTC7A / RFU, TMEM135 / Fold change vs veh, TMEM135 / RFU, DEPTOR / Fold change vs veh, DEPTOR / RFU, CPM / Fold change vs veh, CPM / RFU, DNAJB6 / Fold change vs veh, DNAJB6 / RFU, CACNA2D3 / Fold change vs veh, CACNA2D3 / RFU, DTX4 / Fold change vs veh, DTX4 / RFU, TFCP2 / Fold change vs veh, TFCP2 / RFU, GMCL1 /// GMCL1P1 / Fold change vs veh, GMCL1 /// GMCL1P1 / RFU, AEBP2 / Fold change vs veh, AEBP2 / RFU, SNHG1 /// SNORD22 /// SNORD25 /// SNORD26 /// SNORD27 /// SNORD28 /// SNORD29 /// SNORD31 / Fold change vs veh, SNHG1 /// SNORD22 /// SNORD25 /// SNORD26 /// SNORD27 /// SNORD28 /// SNORD29 /// SNORD31 / Fold change (Aza/veh), C12orf56 (ProbeSet 11735607_a_at) / Fold change (ACY-1035/veh), C12orf56 (ProbeSet 11735607_a_at) / Fold change (Aza/veh), FGFR1OP (ProbeSet 11751329_s_at) / Fold change (ACY-1035/veh), FGFR1OP (ProbeSet 11751329_s_at) / Fold change (Aza/veh), VPS36 (ProbeSet 11739960_a_at) / Fold change (ACY-1035/veh), VPS36 (ProbeSet 11739960_a_at) / RFU SYPL1 (11715823_x_at) / Fold change /veh SYPL1 (11715823_x_at) / RFU IGFBP7 (11715501_s_at) / Fold change /veh IGFBP7 (11715501_s_at) / RFU REEP3 (11722064_at) / Fold change /veh REEP3 (11722064_at) / RFU IGLL1 (11728026_x_at) / Fold change /veh IGLL1 (11728026_x_at): dose or concentration left out as unconfirmed
Conditions: ProbeSet 11762504_a_at; LIST D

Nc1ccc(-c2cccs2)cc1NC(=O)c1ccc2c(c1)cc(C1CC1)n2CCN1CCOCC1 [ACY-1035]
RFU, ZRANB3: 82.93 RFU
